In patent US20220031684A1, “PROPHYLACTIC EFFICACY OF SEROTONIN 4 RECEPTOR AGONISTS AGAINST STRESS” (THE TRUSTEES OF COLUMBIA UNIVERSITY IN THE CITY OF NEW YORK, priority 2019, published 2022):

Assays:
C57BL/6NTac mice [1] = test: Novelty-suppressed feeding (NSF) in CORT model; format: in vivo; settings: male C57BL/6NTac; Flx 18 mg/kg/day or RS-67,333 1.5 mg/kg/day for 3 weeks prior to CORT
Experimental: (§1) This chronic CORT elevation dysregulates the hypothalamic-pituitary-adrenal axis (HPA) in a manner similar to that observed in clinical depression. The dose and duration of CORT treatment was selected based on previous studies. CORT (35 μg/ml, equivalent to about 5 mg/kg/day) dissolved in 0.45% hydroxypropyl-o-cyclodextrin (0-CD) or vehicle (VEH) (0.45% j-CD) was available ad libitum in the drinking water in opaque bottles to protect it from light. VEH- and CORT-treated water was changed every 3 days to prevent possible degradation. Contextual Fear Conditioning (CFC): A 3-shock CFC procedure was administered as previously published. Briefly, mice were placed into context A and administered 3 2-s shocks (0.75 mA) at 180 s, 240 s or 300 s following placement into context A. Mice were removed from the context 15 s following the termination of shock (at 317 s). For context retrieval, mice were placed back into context A for 300 s. Electrophysiology: Electrophysiology was conducted as previously described. Statistical Analysis: Results from data analyses are expressed as means±SEM. Alpha was set to 0.05 for all analyses. Data were analyzed using GraphPad Prism v7.0 or v8.0. For all experiments, unless otherwise noted, one- or two-way ANOVAs with repeated-measures were applied to the data as appropriate. […] Videos were scored using ANY-maze behavior tracking software (Stoelting, Wood Dale, Ill.). […]

C57BL/6NTac mice [2] = test: Adverse side effects of chronic administration; format: in vivo
Experimental: as §1

DRN 5-HT neurons = test: In vivo electrophysiological recordings of DRN 5-HT neurons; set-up: species or system mice; settings: RS67333 1.5 mg/kg i.p.; after vs before administration
Experimental: FIGS. 7A-7G. Acute 5-HT4 receptor stimulation induces fast anxiolytic-like effects on 5-HT function through a modulation of the mPFC in an anxious BALB/cJRj mouse strain. (7A) Before the administration of RS67333 (RS, 1.5 mg/kg), different tracks were performed to record 5-HT neurons for 30 min. At the end of this period, RS67333 was administered i.p. and 30 min after, two or three subsequent tracks were realized. (7B) Discharge frequency of DRN 5-HT neurons is assessed as mean firing rate. The number of neurons tested is indicated in each histogram (n=25 and 26 before and after RS injection for a total of n=5 mice). Data are mean±[…] of DRN 5-HT neurons determined before the administration of RS67333. (7C) Typical recordings of DRN 5-HT neurons in the different experimental conditions. Histograms in the upper panels represent the number of action potentials (APs) per 10 seconds (scale bar). […] (7E) Cortical 5-HT depletion by p-CPA pre-treatment is measured as mean 5-HT levels (n=6-8 mice per group). (7F and 7G) Anxiety is measured in the elevated plus maze (EPM) as mean time or percent time spent in the open arms (F and inset), as mean ratio ambulatory distance in open arms/total distance (7G) and as mean total ambulatory distance (inset) (n=8-11 mice per group). […]

129S6/SvEv mice = test: Novelty-suppressed feeding (NSF) after CFC; format: in vivo
Experimental: This chronic CORT elevation dysregulates the hypothalamic-pituitary-adrenal axis (HPA) in a manner similar to that observed in clinical depression. The dose and duration of CORT treatment was selected based on previous studies. CORT (35 μg/ml, equivalent to about 5 mg/kg/day) dissolved in 0.45% hydroxypropyl-o-cyclodextrin (0-CD) or vehicle (VEH) (0.45% j-CD) was available ad libitum in the drinking water in opaque bottles to protect it from light. VEH- and CORT-treated water was changed every 3 days to prevent possible degradation. Contextual Fear Conditioning (CFC): A 3-shock CFC procedure was administered as previously published. Briefly, mice were placed into context A and administered 3 2-s shocks (0.75 mA) at 180 s, 240 s or 300 s following placement into context A. Mice were removed from the context 15 s following the termination of shock (at 317 s). For context retrieval, mice were placed back into context A for 300 s. Electrophysiology: Electrophysiology was conducted as previously described. Statistical Analysis: Results from data analyses are expressed as means±SEM. Alpha was set to 0.05 for all analyses. Data were analyzed using GraphPad Prism v7.0 or v8.0. For all experiments, unless otherwise noted, one- or two-way ANOVAs with repeated-measures were applied to the data as appropriate. Significant main effects and/or interactions were followed by Fisher's PLSD post hoc analysis or unpaired t-tests. Drugs: All drugs were prepared in physiological saline and all injections were administered intraperitoneally (i.p.) in volumes of 0.1 cc per […] body weight unless otherwise noted. Fluoxetine hydrochloride (Flx): Flx (BioTrend Chemicals AG, BG197, Zurich, Germany) was administered in the drinking water (18 mg/kg/day) for 3 weeks before the start of CORT. […] (R,S)-ketamine (K): (R,S)-ketamine (Ketaset III, Ketamine HCl injection, Fort Dodge Animal Health, Fort Dodge, Iowa) was administered in a single dose at 30 mg/kg of body weight 1 week before the start of CFC. […] PF-04995274: PF-04995274 (Sigma, Catalog No. 1331782-27-4, St. Louis, Mo.) was administered a single dose at 3 or 10 mg/kg of body weight 1 week before the start of CFC. PF-04995274 was dissolved in saline using an ultrasonic homogenizer (BioLogics, Model 3000, Manassas, Va.). Osmotic minipump implantation: ALZET osmotic minipumps (Model 2004, […], 28 days) were implanted subcutaneously under isoflurane anesthesia as previously described [S2]. Osmotic minipumps were rotated under the skin two to three times per week. Behavioral Assays: All experiments were approved by the Institutional Animal Care and Use Committee (IACUC) at the New York Psychiatric Institute (NYSPI). Elevated Plus Maze (EPM): Testing was performed as previously described [S3]. Briefly, the maze is a plus-cross-shaped apparatus consisting of four arms, two open and two enclosed by walls, linked by a central platform at a height of 50 cm from the floor. Mice were individually placed in the center of the maze facing an open arm and were allowed to explore the maze for 5 min. The time spent in and the number of entries into the open arms was used as an anxiety index. Videos were scored using ANY-maze behavior tracking software (Stoelting, Wood Dale, Ill.). Novelty-Suppressed Feeding: The NSF is a conflict test that elicits competing motivations: the drive to eat and the fear of venturing into the center of a brightly lit arena. The latency to feed is used as an index of anxiety-like behavior, because classical anxiolytic drugs decrease this measure. The NSF test was carried out during an 8 min period as previously described [S3]. Briefly, the testing apparatus consisted of a plastic box (50×50×20 cm), the floor of which was covered with approximately 2 cm of bedding. For 129S6/SvEv experiments, mice were food restricted for 12 h. For the C57BL/6N experiments, mice were food restricted for 24 h. […]

sigma 2 = sigma 2 (Homo sapiens, UniProt Q5BJF2); settings: cited from earlier work
[3] = FIG. 3 cohort, FIG. 3M, Fisher's PLSD

Sequence of sigma 2 (Q5BJF2 whole entry): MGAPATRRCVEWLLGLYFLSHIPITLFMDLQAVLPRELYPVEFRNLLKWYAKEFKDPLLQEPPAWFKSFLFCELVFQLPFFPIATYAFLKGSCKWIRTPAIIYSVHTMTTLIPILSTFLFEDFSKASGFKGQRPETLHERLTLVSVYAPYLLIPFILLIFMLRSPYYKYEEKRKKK

## CCCCN1CCC(CCC(=O)c2cc(Cl)c(N)cc2OC)CC1.Cl [RS-67,333, 1-(4-amino-5-chloro-2-methoxyphenyl)-3-[1(n-butyl)-4-piperidinyl]-1-propanone HCl]
C57BL/6NTac mice [1]
  latency to approach the food pellet (NSF) vs CORT+Veh: significantly decreased latency
C57BL/6NTac mice [2]
  adverse side effects: did not result in adverse side effects
DRN 5-HT neurons
  increase of the discharge frequency of DRN 5-HT neurons: 63%
129S6/SvEv mice; FIG. 2M, t-test
  p, NSF Latency of feed, Saline vs. RS67333 (10 mg/kg): 0.0108
129S6/SvEv mice; FIG. 2N, t-test
  p, NSF Food Eaten (g), Saline vs. RS67333 (10 mg/kg): 0.3871
129S6/SvEv mice; FIG. 2O, t-test
  p, NSF Body Weight, Saline vs. RS67333 (10 mg/kg): 0.8829
129S6/SvEv mice; [3]
  p, NSF Latency to feed (sec), RS67333 (1.5 mg/kg) vs. RS67333 (10 mg/kg): 0.0820
  p, NSF Latency to feed (sec), Saline vs. RS67333 (10 mg/kg): 0.0010
129S6/SvEv mice; FIG. 3 cohort, FIG. 3M, Fisher's PLSD, p cell empty
  significance (* column), NSF Latency to feed (sec), Saline vs. RS67333 (1.5 mg/kg): ns
129S6/SvEv mice; female 129S6/SvEv, 10 mg/kg
  latency to feed (NSF): significantly reduced latency to feed
129S6/SvEv mice; male 129S6/SvEv, 10 mg/kg
  latency to approach the pellet (NSF) vs saline: significantly reduced latency
Sigma 2
  pKi sigma 2: 8.0
